Assay results from patent US10035760B2, “Inhibitors of human immunodeficiency virus replication” (priority 2013, dated 2018).
Where two headings read alike, the source gives them in different places.

Test system: recombinant NL4-3 virus (Renilla luciferase) in MT-2 cells
Test: HIV cell culture assay (antiviral activity, luciferase readout in infected MT-2 cells)
Format: cell-based
Details: Renilla
Description: HIV cell culture assay—MT-2 cells, 293T cells and the proviral DNA clone of NL4-3 virus were obtained from the NIH AIDS Research and Reference Reagent Program. MT-2 cells were propagated in RPMI 1640 media supplemented with 10% heat inactivated fetal bovine serum (FBS), 100 ug/ml penicillin G and up to 100 units/ml streptomycin. The 293T cells were propagated in DMEM media supplemented with 10% heat inactivated FBS, 100 ug/ml penicillin G and 100 ug/ml streptomycin. A recombinant NL4-3 proviral clone, in which a section of the nef gene was replaced with the Renilla luciferase gene, was used to make the reference virus used in these studies. The recombinant virus was prepared through transfection of the recombinant NL4-3 proviral clone into 293T cells using Transit-293 Transfection Reagent from Mirus Bio LLC (Madison, Wis.). Supernatent was harvested after 2-3 days after transfection, and the amount of virus present was titered in MT-2 cells using luciferase enzyme activity as a marker. Luciferase activity was quantitated using the EnduRen Live Cell Substrate from Promega (Madison, Wis.). Antiviral activities of compounds toward the recombinant virus were quantified by measuring luciferase activity in MT-2 cells infected for 4-5 days with the recombinant virus in the presence of serial dilutions of the compound.
The 50% effective concentration (EC50) was calculated by using the exponential form of the median effect equation where (Fa)=1/[1+(ED50/drug conc.)^m](Johnson V A, Byington R T. Infectivity Assay. In Techniques in HIV Research. ed. Aldovini A, Walker B D. 71-76. New York: Stockton Press. 1990).

[1] = NL43, read-out: Activity, antiviral activity class, recombinant NL4-3 Renilla luciferase virus in MT-2 cells
[2] = NL43, recombinant NL4-3 Renilla luciferase virus in MT-2 cells

C=CCOc1ccc(C[C@H](NC(=O)NS(=O)(=O)c2ccccc2C)C(=O)N(C)c2ccc3c(c2)OCO3)cc1 [Example 58, (S)-3-(4-(allyloxy)phenyl)-N-(benzo[d][1,3]dioxol-5-yl)-N-methyl-2-(3-(o-tolylsulfonyl)ureido)propanamide]
EC50 [1]: 1000 to 10000 nM

Cc1ccccc1S(=O)(=O)NC(=O)N[C@@H](Cc1ccc(OCc2ccccc2)cc1)C(=O)N(C)c1ccc2c(c1)OCO2 [Example 68, (S)—N-(benzo[d][1,3]dioxol-5-yl)-3-(4-(benzyloxy)phenyl)-N-methyl-2-(3-(o-tolylsulfonyl)ureido)propanamide]
EC50 [1]: 10000 to 100000 nM | EC50 [2]: 16000 nM

Cc1nc(-c2ccc(CN(C)C(=O)[C@H](Cc3ccccc3)NC(=O)NS(=O)(=O)c3ccccc3)cc2)no1 [Example 97, (S)—N-methyl-N-(4-(5-methyl-1,2,4-oxadiazol-3-yl)benzyl)-3-phenyl-2-(3-(phenylsulfonyl)ureido)propanamide]
EC50 [1]: 1000 to 10000 nM

Cc1ccccc1S(=O)(=O)NC(=O)N[C@@H](Cc1ccccc1)C(=O)N(c1ccccc1)C(C)C [Example CA-70, (S)—N-isopropyl-N, 3-diphenyl-2-(3-(o-tolylsulfonyl)ureido)propanamide]
EC50 [1]: 100 to 1000 nM

COc1ccc(N(C)C(=O)[C@H](Cc2ccccn2)NC(=O)NS(=O)(=O)c2ccccc2C)cc1 [Example 192, (S)—N-(4-methoxyphenyl)-N-methyl-3-(pyridin-2-yl)-2-(3-(o-tolylsulfonyl)ureido)propanamide]
EC50 [1]: 10000 to 100000 nM

C=CCCOc1cccc(C[C@H](NC(=O)NS(=O)(=O)c2ccccc2C=C)C(=O)N(C)c2ccc(OC)cc2)c1 [Example 213, (S)-3-(3-(but-3-en-1-yloxy)phenyl)-N-(4-methoxyphenyl)-N-methyl-2-(3-((2-vinylphenyl)sulfonyl)ureido)propanamide]
EC50 [1]: 1000 to 10000 nM | EC50 [2]: 5070 nM

CCN(C(=O)[C@H](Cc1ccccc1)NC(=O)NS(=O)(=O)c1cc(Br)ccc1C)c1ccc(OC)cc1 [Example 120, (S)-2-(3-((5-bromo-2-methylphenyl)sulfonyl)ureido)-N-ethyl-N-(4-methoxyphenyl)-3-phenylpropanamide]
EC50 [1]: 100 to 1000 nM

Cc1c(Cl)cccc1S(=O)(=O)NC(=O)N[C@@H](Cc1ccccc1)C(=O)N(C)c1ccc2c(c1)OCO2 [Example 28, (S)—N-(benzo[d][1,3]dioxol-5-yl)-2-(3-((3-chloro-2-methylphenyl)sulfonyl)ureido)-N-methyl-3-phenylpropanamide]
EC50 [1]: < 100 nM

CCN(C(=O)[C@H](Cc1ccccc1)NC(=O)NS(=O)(=O)c1cccc(-c2ccsc2Cl)c1C)c1ccc(OC)cc1 [Example 156, (S)-2-(3-((3-(2-chlorothiophen-3-yl)-2-methylphenyl)sulfonyl)ureido)-N-ethyl-N-(4-methoxyphenyl)-3-phenylpropanamide]
EC50 [1]: 100 to 1000 nM

CN(C(=O)[C@H](Cc1cc(F)cc(F)c1)NC(=O)NS(=O)(=O)c1ccccc1F)c1ccc2c(c1)OC(F)(F)O2 [Example 35, (S)—N-(2,2-difluorobenzo[d][1,3]dioxol-5-yl)-3-(3,5-difluorophenyl)-2-(3-((2-fluorophenyl)sulfonyl)ureido)-N-methylpropanamide]
EC50 [1]: 100 to 1000 nM

Cc1ccccc1S(=O)(=O)NC(=O)N[C@@H](Cc1ccccc1)C(=O)N(C)c1cccc(C(N)=O)c1 [Example CA-94, (S)-3-(N-methyl-3-phenyl-2-(3-(o-tolylsulfonyl)ureido)propanamido)benzamide]
EC50 [1]: 1000 to 10000 nM | EC50 [2]: 3260 nM

CCN(C(=O)[C@H](Cc1ccccc1)NC(=O)NS(=O)(=O)c1cccc(-c2csc3ccccc23)c1)c1ccc(OC)cc1 [Example 153, (S)-2-(3-((3-(benzo[b]thiophen-3-yl)phenyl)sulfonyl)ureido)-N-ethyl-N-(4-methoxyphenyl)-3-phenylpropanamide]
EC50 [1]: 100 to 1000 nM

CN(C(=O)[C@H](Cc1ccccc1)NC(=O)NS(=O)(=O)C1(Cc2ccccc2)CC1)c1ccc2c(c1)OCO2 [Example 107, (S)—N-(benzo[d][1,3]dioxol-5-yl)-2-(3-((1-benzylcyclopropyl)sulfonyl)ureido)-N-methyl-3-phenylpropanamide]
EC50 [1]: 1000 to 10000 nM

COc1cccc(C[C@H](NC(=O)NS(=O)(=O)c2ccccc2C)C(=O)N(C)c2ccc3c(c2)OCO3)c1 [Example 78, (S)—N-(benzo[d][1,3]dioxol-5-yl)-3-(3-methoxyphenyl)-N-methyl-2-(3-(o-tolylsulfonyl)ureido)propanamide]
EC50 [1]: 100 to 1000 nM

CN(C(=O)[C@H](Cc1ccccc1)NC(=O)NS(=O)(=O)Cc1ccc(Cl)c(Cl)c1)c1ccc2c(c1)OCO2 [Example 102, (S)—N-(benzo[d][1,3]dioxol-5-yl)-2-(3-((3,4-dichlorobenzyl)sulfonyl)ureido)-N-methyl-3-phenylpropanamide]
EC50 [1]: 100 to 1000 nM

CCc1cccc(S(=O)(=O)NC(=O)N[C@@H](Cc2ccccc2)C(=O)N(CC)c2ccc(OC)cc2)c1 [Example 141, (S)—N-ethyl-2-(3-((3-ethylphenyl)sulfonyl)ureido)-N-(4-methoxyphenyl)-3-phenylpropanamide]
EC50 [1]: < 100 nM

Cc1ccccc1S(=O)(=O)NC(=O)N[C@@H](Cc1ccccc1)C(=O)N1CCC1 [Example 188, (S)—N-((1-(azetidin-1-yl)-1-oxo-3-phenylpropan-2-yl)carbamoyl)-2-methylbenzenesulfonamide]
EC50 [1]: 10000 to 100000 nM | EC50 [2]: 27500 nM

CCN(C(=O)[C@H](Cc1ccccc1)NC(=O)NS(=O)(=O)c1cccc(-c2ccnn2C)c1)c1ccc(OC)cc1 [Example 152, (S)—N-ethyl-N-(4-methoxyphenyl)-2-(3-((3-(1-methyl-1H-pyrazol-5-yl)phenyl)sulfonyl)ureido)-3-phenylpropanamide]
EC50 [1]: < 100 nM | EC50 [2]: 90 nM

CN(C(=O)[C@H](Cc1ccccc1)NC(=O)NS(=O)(=O)C1CCCCC1)c1ccc2c(c1)OCO2 [Example 111, (S)—N-(benzo[d][1,3]dioxol-5-yl)-2-(3-(cyclohexylsulfonyl)ureido)-N-methyl-3-phenylpropanamide]
EC50 [1]: 100 to 1000 nM

Cc1ccccc1S(=O)(=O)NC(=O)N[C@@H](Cc1ccc(Cl)cc1)C(=O)N(C)c1ccc2c(c1)OCO2 [Example 51, (S)—N-(benzo[d][1,3]dioxol-5-yl)-3-(4-chlorophenyl)-N-methyl-2-(3-(o-tolylsulfonyl)ureido)propanamide]
EC50 [1]: 100 to 1000 nM | EC50 [2]: 490 nM

COc1ccc(N(C)C(=O)[C@H](Cn2cncn2)NC(=O)NS(=O)(=O)c2ccccc2C)cc1 [Example 193, (S)—N-(4-methoxyphenyl)-N-methyl-2-(3-(o-tolylsulfonyl)ureido)-3-(1H-1,2,4-triazol-1-yl)propanamide]
EC50 [2]: > 100000 nM

CN(C(=O)[C@H](Cc1ccccc1)NC(=O)NS(=O)(=O)c1ccccc1-c1ccsc1)c1ccc2c(c1)OCO2 [Example 132, (S)—N-(benzo[d][1,3]dioxol-5-yl)-N-methyl-3-phenyl-2-(3-((2-(thiophen-3-yl)phenyl)sulfonyl)ureido)propanamide]
EC50 [1]: 10000 to 100000 nM

CN(C(=O)[C@H](Cc1ccccc1)NC(=O)NS(=O)(=O)c1ccccc1-c1cccc(O)c1)c1ccc2c(c1)OCO2 [Example 125, (S)—N-(benzo[d][1,3]dioxol-5-yl)-2-(3-((3′-hydroxy-[1,1′-biphenyl]-2-yl)sulfonyl)ureido)-N-methyl-3-phenylpropanamide]
EC50 [1]: 1000 to 10000 nM

COc1ccc(N(C)C(=O)[C@H](Cc2ccccc2)NC(=O)NS(=O)(=O)c2ccccc2C)cc1 [Example 167, (S)—N-(4-methoxyphenyl)-N-methyl-3-phenyl-2-(3-(o-tolylsulfonyl)ureido)propanamide]
EC50 [1]: < 100 nM

CN(C(=O)[C@H](Cc1ccccc1)NC(=O)NS(=O)(=O)c1ccccc1-c1ccc(CO)cc1)c1ccc2c(c1)OCO2 [Example 124, (S)—N-(benzo[d][1,3]dioxol-5-yl)-2-(3-((4′-(hydroxymethyl)-[1,1′-biphenyl]-2-yl)sulfonyl)ureido)-N-methyl-3-phenylpropanamide]
EC50 [1]: 1000 to 10000 nM

COc1ccccc1S(=O)(=O)NC(=O)N[C@@H](Cc1ccccc1)C(=O)N(C)c1ccc2c(c1)OCO2 [Example 108, (S)—N-(benzo[d][1,3]dioxol-5-yl)-2-(3-((2-methoxyphenyl)sulfonyl)ureido)-N-methyl-3-phenylpropanamide]
EC50 [1]: 100 to 1000 nM

CN(C(=O)[C@H](Cc1ccccc1)NC(=O)NS(=O)(=O)c1c(F)cccc1F)c1ccc2c(c1)OCO2 [Example 98, (S)—N-(benzo[d][1,3]dioxol-5-yl)-2-(3-((2,6-difluorophenyl)sulfonyl)ureido)-N-methyl-3-phenylpropanamide]
EC50 [1]: < 100 nM | EC50 [2]: 90 nM

CCCc1ccccc1S(=O)(=O)NC(=O)N[C@@H](Cc1ccccc1)C(=O)N(C)c1ccc2c(c1)OCO2 [Example 145, (S)—N-(benzo[d][1,3]dioxol-5-yl)-N-methyl-3-phenyl-2-(3-((2-propylphenyl)sulfonyl)ureido)propanamide]
EC50 [1]: 100 to 1000 nM

CN(C(=O)[C@H](Cc1ccccc1)NC(=O)NS(=O)(=O)CCc1ccccc1)c1ccc2c(c1)OCO2 [Example 24, (S)—N-(benzo[d][1,3]dioxol-5-yl)-N-methyl-2-(3-(phenethylsulfonyl)ureido)-3-phenylpropanamide]
EC50 [1]: 100 to 1000 nM
